Data reported in patent US20230240293A1, “FUNGICIDAL COMPOSITIONS” (SYNGENTA CROP PROTECTION AG, priority 2020, published 2023).
Numbered stars: 1 amine (or outer) side, 2 acyl side, 3 side chain; on linkers, the order of the positions; unused ones are H or OH. Square brackets hold non-standard residues; d marks the D form. Peptide text beside a SMILES is read from it. ξ: configuration not given here. ξNMeVal(3-OH) = CNC(C(=O)O)C(C)(C)O; NMeF = CN[CH](Cc1ccccc1)C(=O)O; X1 = CCC(C)C(O[*:1])C(=O)[*:2]; NMeV = CN[CH](C(=O)O)C(C)C

Key:
Botrytis cinerea = test: microbe, parasite or virus in culture; format: cell-based; settings: 72 hours
From the text: (§1) A synergistic effect exists whenever the action of an active ingredient combination is greater than the sum of the actions of the individual components. The action to be expected E for a given active ingredient combination obeys the so-called COLBY formula and can be calculated as follows (COLBY, S.R. “Calculating synergistic and antagonistic responses of herbicide combination”, Weeds, Vol. 15, pages 20-22; 1967): • ppm = milligrams of active ingredient (= a.i.) per liter of spray mixture, • X = % action by active ingredient (A) using p ppm of active ingredient, • Y = % action by active ingredient (B) using q ppm of active ingredient. • According to COLBY, the expected (additive) action of active ingredients (A)+(B) using p+q ppm of active ingredient is • [formula]
A standard description of the liquid culture tests is provided in Example 1.
Mycelia fragments or conidia suspensions of a fungus, prepared either freshly from liquid cultures of the fungus or from cryogenic storage, are directly mixed into nutrient broth. DMSO solutions of the test compound (max. 10 mg/mL) is diluted with 0.025% Tween20 by factor 50 and 10 µL of this solution is pipetted into a microtiter plate (96-well format). […] The test plates are incubated in the dark at 24° C. and 96% relative humidity (rh). The inhibition of fungal growth is determined photometrically and visually after 3 - 7 days, depending on the pathosystem, and percent antifungal activity relative to the untreated check is calculated.
Conidia of the fungus from cryogenic storage were directly mixed into nutrient broth (PDB potato dextrose broth). After placing a DMSO solution of the test compositions into a microtiter plate (96-well format), the nutrient broth containing the fungal spores was added.

Alternaria solani = test: microbe, parasite or virus in culture; format: cell-based
From the text: as §1
The compositions according to the invention are tested for their biological (fungicidal) activity as dimethylsulfoxide (DMSO) solutions using one or more of the following protocols (Examples 1-1 and 1-2). A standard description of the liquid culture tests is provided in Example 1.
Mycelia fragments or conidia suspensions of a fungus, prepared either freshly from liquid cultures of the fungus or from cryogenic storage, are directly mixed into nutrient broth. DMSO solutions of the test compound (max. 10 mg/mL) is diluted with 0.025% Tween20 by factor 50 and 10 µL of this solution is pipetted into a microtiter plate (96-well format). The nutrient broth containing the fungal spores/mycelia fragments is then added to give an end concentration of the tested compound. The test plates are incubated in the dark at 24° C. and 96% relative humidity (rh). […]
Conidia of the fungus from cryogenic storage were directly mixed into nutrient broth (PDB potato dextrose broth). After placing a DMSO solution of the test compositions into a microtiter plate (96-well format) the nutrient broth containing the fungal spores was added.

SMILES: CC(O)(Cn1cncn1)c1ccc(Oc2ccc(Cl)cc2)cc1C(F)(F)F (stereo not drawn) [Mefentrifluconazole, mefentrifluconazole, reference compound]
- (B) inhibition (Botrytis cinerea; Mefentrifluconazole 0.0250 ppm alone): 27%

SMILES: CCC(C)C1NC(=O)C2CCCN2C(=O)C(Cc2ccccc2)N(C)C(=O)C(Cc2ccccc2)NC(=O)C(C(C)C)N(C)C(=O)C(C(C)CC)OC(=O)C(C(C)(C)O)N(C)C(=O)C(CC(C)C)NC(=O)C(C(C)C)N(C)C1=O (stereo not drawn) [Aureobasidin A] (cyclo([ξNMeVal(3-OH)][X1][NMeV]F[NMeF]PI[NMeV]L); configuration not given here)
- (A) inhibition (Botrytis cinerea; Aureobasidin A 0.0025 ppm alone (mefentrifluconazole table)): 8%
- (A) inhibition (Botrytis cinerea; Aureobasidin A 0.0050 ppm alone (mefentrifluconazole table)): 7%
- (A) inhibition (Botrytis cinerea; Aureobasidin A 0.01 ppm alone (imazalil table)): 27%
- (A) inhibition (Botrytis cinerea; Aureobasidin A 0.02 ppm alone (fenhexamid table)): 53%
- (A) inhibition (Botrytis cinerea; Aureobasidin A 0.02 ppm alone (imazalil table)): 46%
- (A) inhibition (Botrytis cinerea; Aureobasidin A 0.0200 ppm alone (mefentrifluconazole table)): 22%
- (A) inhibition (Alternaria solani; Aureobasidin A 0.0001 ppm alone, growth determined photometrically after 48 hours): 0%
- (A) inhibition (Alternaria solani; Aureobasidin A 0.0002 ppm alone, 48 hours): 11%
- (A) inhibition (Alternaria solani; Aureobasidin A 0.0006 ppm alone, 48 hours): 0%
- (A) inhibition (Alternaria solani; Aureobasidin A 0.0012 ppm alone, 48 hours): 0%
- (A) inhibition (Alternaria solani; Aureobasidin A 0.0025 ppm alone, 48 hours): 0%
- (A) inhibition (Alternaria solani; Aureobasidin A 0.0050 ppm alone, 48 hours): 0%
- (A) inhibition (Alternaria solani; Aureobasidin A 0.04 ppm alone (fenhexamid table), 48 hours): 40%

SMILES: C=CCOC(Cn1ccnc1)c1ccc(Cl)cc1Cl (stereo not drawn) [Imazalil, imazalil, reference compound]
- inhibition at 0.0625 ppm (Botrytis cinerea; Botrytis cinerea, Imazalil 0.0625 ppm alone, read-out: (B) inhibition): 5%
- inhibition at 0.125 ppm (Botrytis cinerea; Botrytis cinerea, Imazalil 0.1250 ppm alone, read-out: (B) inhibition): 22%

SMILES: CC1(C(=O)Nc2ccc(O)c(Cl)c2Cl)CCCCC1 [Fenhexamid, fenhexamid, reference compound]
- inhibition at 0.0125 ppm (Botrytis cinerea; Botrytis cinerea, Fenhexamid 0.0125 ppm alone, read-out: (B) inhibition): 2%
- inhibition at 0.1 ppm (Alternaria solani; Alternaria solani, Fenhexamid 0.10 ppm alone, 48 hours, read-out: (B) inhibition): 0%

SMILES: CC1COC(Cn2cncn2)(c2ccc(Oc3ccc(Cl)cc3)cc2Cl)O1 (stereo not drawn) [Difenoconazole, difenoconazole, reference compound]
- inhibition at 0.0156 ppm (Alternaria solani; Alternaria solani, Difenoconazole 0.0156 ppm alone, 48 hours, read-out: (B) inhibition): 30%
- inhibition at 0.0313 ppm (Alternaria solani; Alternaria solani, Difenoconazole 0.0313 ppm alone, 48 hours, read-out: (B) inhibition): 43%
- inhibition at 0.0625 ppm (Alternaria solani; Alternaria solani, Difenoconazole 0.0625 ppm alone, 48 hours, read-out: (B) inhibition): 65%
